# Assay results published in PubChem BioAssay (NCI).
#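 Dose response: 5 concentrations. Exposure: 48 h. Format: 96-well plates. Endpoint: linear interpolation; highest concentration if not reached. TGI is the concentration that stops growth completely.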
# Columns and labels:
# Experiment in all cases: NCI anticancer screen, dose series, 48 h
# [1] = tested on: 786-0 renal
# [2] = tested on: A498 renal
# [3] = tested on: A549 NSCLC
# [4] = tested on: ACHN renal
# [5] = tested on: BT-549 breast
# [6] = tested on: CAKI-1 renal
# [7] = tested on: CCRF-CEM leukemia
# [8] = tested on: COLO 205 colon
# [9] = tested on: DU-145 prostate
# [10] = tested on: EKVX NSCLC
# [11] = tested on: HCC-2998 colon
# [12] = tested on: HCT-116 colon
# [13] = tested on: HCT-15 colon
# [14] = tested on: HL-60(TB) leukemia
# [15] = tested on: HOP-62 NSCLC
# [16] = tested on: HS 578T breast
# [17] = tested on: HT29 colon
# [18] = tested on: IGROV1 ovarian
# [19] = tested on: K-562 leukemia
# [20] = tested on: KM12 colon
# [21] = tested on: M14 melanoma
# [22] = tested on: MALME-3M melanoma
# [23] = tested on: MCF7 breast
# [24] = tested on: MDA-MB-231 breast
# [25] = tested on: MDA-N
# [26] = tested on: MOLT-4 leukemia
# [27] = tested on: NCI-H226 lung
# [28] = tested on: NCI-H23 lung
# [29] = tested on: NCI-H460 lung
# [30] = tested on: NCI-H522 lung
# [31] = tested on: NCI/ADR-RES ovarian
# [32] = tested on: OVCAR-3 ovarian
# [33] = tested on: OVCAR-4 ovarian
# [34] = tested on: OVCAR-5 ovarian
# [35] = tested on: OVCAR-8 ovarian
# [36] = tested on: PC-3 prostate
# [37] = tested on: RXF 393 renal
# [38] = tested on: SF-268 CNS
# [39] = tested on: SF-295 CNS
# [40] = tested on: SF-539 CNS
# [41] = tested on: SK-MEL-28 melanoma
# [42] = tested on: SK-MEL-5 melanoma
# [43] = tested on: SK-OV-3 ovarian
# [44] = tested on: SN12C renal
# [45] = tested on: SNB-19 CNS
# [46] = tested on: SNB-75 CNS
# [47] = tested on: SR leukemia
# [48] = tested on: SW-620 colon
# [49] = tested on: T-47D breast
# [50] = tested on: TK-10 renal
# [51] = tested on: U251 CNS
# [52] = tested on: UACC-257 melanoma
# [53] = tested on: UACC-62 melanoma
# [54] = tested on: UO-31 renal
# [55] = tested on: HOP-92 NSCLC
# [56] = tested on: LOX IMVI melanoma
# [57] = tested on: MDA-MB-435
# [58] = tested on: RPMI-8226 leukemia
# [59] = tested on: SK-MEL-2 melanoma
smiles,measurement,setting,value
NNc1ncnc2cccc(Cl)c12,TGI,[1],> 100 µM
same,TGI,[2],> 100 µM
same,TGI,[3],> 100 µM
same,TGI,[4],> 100 µM
same,TGI,[5],> 100 µM
same,TGI,[6],> 100 µM
same,TGI,[7],> 100 µM
same,TGI,[8],> 100 µM
same,TGI,[9],> 100 µM
same,TGI,[10],32 µM
same,TGI,[11],> 100 µM
same,TGI,[12],> 100 µM
same,TGI,[13],> 100 µM
same,TGI,[14],> 100 µM
same,TGI,[15],> 100 µM
same,TGI,[16],> 100 µM
same,TGI,[17],> 100 µM
same,TGI,[18],> 100 µM
same,TGI,[19],> 100 µM
same,TGI,[20],> 100 µM
same,TGI,[21],> 100 µM
same,TGI,[22],> 100 µM
same,TGI,[23],> 100 µM
same,TGI,[24],> 100 µM
same,TGI,[25],> 100 µM
same,TGI,[26],> 100 µM
same,TGI,[27],> 100 µM
same,TGI,[28],> 100 µM
same,TGI,[29],> 100 µM
same,TGI,[30],> 100 µM
same,TGI,[31],> 100 µM
same,TGI,[32],> 100 µM
same,TGI,[33],> 100 µM
same,TGI,[34],> 100 µM
same,TGI,[35],> 100 µM
same,TGI,[36],> 100 µM
same,TGI,[37],> 100 µM
same,TGI,[38],> 100 µM
same,TGI,[39],> 100 µM
same,TGI,[40],> 100 µM
same,TGI,[41],> 100 µM
same,TGI,[42],> 100 µM
same,TGI,[43],> 100 µM
same,TGI,[44],> 100 µM
same,TGI,[45],> 100 µM
same,TGI,[46],> 100 µM
same,TGI,[47],> 100 µM
same,TGI,[48],> 100 µM
same,TGI,[49],> 100 µM
same,TGI,[50],> 100 µM
same,TGI,[51],> 100 µM
same,TGI,[52],> 100 µM
same,TGI,[53],> 100 µM
same,TGI,[54],> 100 µM
COc1cc(C(=O)N(C(=O)N2CCCCC2)c2ccccc2)cc(OC)c1OC,TGI,[1],> 100 µM
same,TGI,[2],> 100 µM
same,TGI,[3],> 100 µM
same,TGI,[4],> 100 µM
same,TGI,[5],> 100 µM
same,TGI,[6],> 100 µM
same,TGI,[7],> 100 µM
same,TGI,[8],> 100 µM
same,TGI,[9],> 100 µM
same,TGI,[10],> 100 µM
same,TGI,[11],> 100 µM
same,TGI,[12],> 100 µM
same,TGI,[13],> 100 µM
same,TGI,[15],> 100 µM
same,TGI,[55],> 100 µM
same,TGI,[18],> 100 µM
same,TGI,[19],> 100 µM
same,TGI,[20],> 100 µM
same,TGI,[56],> 100 µM
same,TGI,[21],> 100 µM
same,TGI,[23],> 100 µM
same,TGI,[24],> 100 µM
same,TGI,[57],> 100 µM
same,TGI,[25],> 100 µM
same,TGI,[26],> 100 µM
same,TGI,[27],> 100 µM
same,TGI,[28],> 100 µM
same,TGI,[29],> 100 µM
same,TGI,[31],> 100 µM
same,TGI,[32],> 100 µM
same,TGI,[34],> 100 µM
same,TGI,[35],> 100 µM
same,TGI,[36],> 100 µM
same,TGI,[58],> 100 µM
same,TGI,[39],> 100 µM
same,TGI,[40],> 100 µM
same,TGI,[59],> 100 µM
same,TGI,[41],> 100 µM
same,TGI,[42],> 100 µM
same,TGI,[43],> 100 µM
same,TGI,[44],> 100 µM
same,TGI,[45],> 100 µM
same,TGI,[46],> 100 µM
same,TGI,[47],> 100 µM
same,TGI,[48],> 100 µM
same,TGI,[49],> 100 µM
same,TGI,[51],> 100 µM
same,TGI,[52],> 100 µM
same,TGI,[53],> 100 µM
same,TGI,[54],> 100 µM
